Laboratory results from patent US20180185801A1, “AMPHOTERIC ESTER SULFONATES” (Eastman Chemical Company, priority 2014, published 2018).
Read-outs that look alike come from different tables or passages of the source.

Assays:
[1] = Foaming properties, ASTM 1173-07 foam height test; assay type: physicochemical
Description: The Standard Test Method for Foaming Properties of Surface-Active Agents (ASTM 1173-07) was used to determine the foaming properties of the ester sulfonates 1 described herein. This method generates foam under low-agitation conditions and is generally used for moderate- and high-foam surfactants. This test gathers data on initial foam height and foam decay.
Foam decay provides information on foam stability.
The apparatus for carrying out this test includes a jacketed column and a pipet. The jacketed column serves as a receiver, while the pipet delivers the surface-active solution. Solutions of each surface-active agent were prepared. The amphoteric ester sulphonate solution to be tested was added to the receiver (50 mL) and to the pipet (200 mL). The pipet was positioned above the receiver and opened. As the solution fell and made contact with the solution in the receiver, foam was generated. When the pipet was empty, the time was noted and an initial foam height was recorded. The foam height was recorded each minute for five minutes. Exact size specifications for the glassware can be found in ASTM 1173-07. The foam height results for each ester sulfonate 1 and representative standards are listed below in Tables 1 (0.1% concentration) and 2 (1% concentration).

[2] = Critical micelle concentration, fluorimetric determination with DPH dye; assay type: physicochemical
Experimental: The critical micelle concentration (CMC) was also determined for each compound. The CMC is the concentration of surfactant above which micelles spontaneously form. CMC is an important characteristic of a surfactant. At surfactant concentrations below the CMC, surface tension varies widely with surfactant concentration. At concentrations above the CMC, surface tension remains fairly constant. A lower CMC indicates less surfactant is needed to saturate interfaces and form micelles. Typical CMC values are less than 1 weight percent (10,000 ppm).
The fluorimetric determination of CMC described by Chattopadhyay and London (Analytical Biochemistry, Vol. 139, pp. 408-412 (1984)) was used to obtain the critical micelle concentrations found in Table 3 below. This method employs the fluorescent dye 1,6-diphenyl-1,3,5-hexatriene (DPH) in a solution of the surface-active agent. The analysis is based on differences in fluorescence upon incorporation of the dye into the interior of the micelles. As the solution exceeds CMC, a large increase in fluorescence intensity is observed.

[3] = buffer, pH 4.5
Experimental: The resulting mixture was placed in a 50° C. oven. Samples were taken periodically and analyzed for the amount of 3-(lauroyloxypropyldimethylammonio)-2-hydroxypropanesulfonate remaining by quantitative HPLC.
Samples were taken periodically and analyzed for the amount of 3-(cocoyloxypropyldimethylammonio)acetate remaining by quantitative HPLC.

Structure (SMILES): CCCCCCCCCCCC(=O)OC(C)CC[N+](C)(C)CC(O)CS(=O)(=O)[O-] (centres unmarked) [Example 27, 3-(3-(lauroyloxy)-1-butyldimethylammonio-1-yl)-2-hydroxypropanesulfonate]
- Foam height (cm) at time t (min) ([1]; 1 g/L (0.1 weight %), t = 0 min): 16.5 cm
- Foam height (cm) at time t (min) ([1]; 1 g/L (0.1 weight %), t = 1 min): 16.0 cm
- Foam height (cm) at time t (min) ([1]; 1 g/L (0.1 weight %), t = 2 min): 15.5 cm
- Foam height (cm) at time t (min) ([1]; 1 g/L (0.1 weight %), t = 3 min): 15.5 cm
- Foam height (cm) at time t (min) ([1]; 1 g/L (0.1 weight %), t = 4 min): 15.5 cm
- Foam height (cm) at time t (min) ([1]; 1 g/L (0.1 weight %), t = 5 min): 15.0 cm
- Foam height (cm) at time t (min) ([1]; 10 g/L (1.0 weight %), t = 0 min): 17.5 cm
- Foam height (cm) at time t (min) ([1]; 10 g/L (1.0 weight %), t = 1 min): 17.0 cm
- Foam height (cm) at time t (min) ([1]; 10 g/L (1.0 weight %), t = 2 min): 17.0 cm
- Foam height (cm) at time t (min) ([1]; 10 g/L (1.0 weight %), t = 3 min): 16.5 cm
- Foam height (cm) at time t (min) ([1]; 10 g/L (1.0 weight %), t = 4 min): 16.0 cm
- Foam height (cm) at time t (min) ([1]; 10 g/L (1.0 weight %), t = 5 min): 15.5 cm
- CMC [2]: 0.060 mM
- CMC (ppm) [2]: 26.4 ppm

Structure (SMILES): CCCCCCCCCCCC(=O)OCCC[N+](C)(C)CC(O)CS(=O)(=O)[O-] (centres unmarked) [Example 31, 3-(lauroyloxypropyldimethylammonio)-2-hydroxypropanesulfonate]
- Percent Amphoteric Remaining ([3]; 0 h): 100%
- Percent Amphoteric Remaining ([3]; 336 h): 98%
- Percent Amphoteric Remaining ([3]; 1008 h): 98%
- Percent Amphoteric Remaining ([3]; 1344 h): 94%
- Percent Amphoteric Remaining ([3]; 2016 h): 95%

Structure (SMILES): CCCCCCCCCCCCOS(=O)(=O)O.N [ammonium lauryl sulfate]
- CMC [2]: 1.38 mM
- CMC (ppm) [2]: 392 ppm

Structure (SMILES): CCCCCCCCCCCCOS(=O)(=O)[O-].[Na+] [sodium lauryl sulfate]
- CMC [2]: 8.27 mM
- CMC (ppm) [2]: 2386 ppm
